Measurements: patent US5866540A, “Cyclic adhesion inhibitors” (Merck Patent Gesellschaft mit Beschrankter Haftung, priority 1995, dated 1999)
Where a SMILES comes first, the peptide text is derived from it. [ ]: non-standard residue; d: D form.

Tests used:
αvβ3 = αvβ3 (Homo sapiens, UniProt P05106+P06756); test: Solid-phase receptor binding ELISA: competition with biotinylated fibrinogen on coated integrin receptor; conditions: ligand biotinylated fibrinogen 1 μg/ml; receptor coated at 1 μg/ml; 3 h at 30° C.; triplicates
Procedure: (§1) The effect was found by using the method of J. W. Smith, Z. M. Ruggei, T. J. Kunicki and D. A. Cheesh descibed in J. Biol. Chem. 265, 12 267-12 271 (1990).
(§2) Details of the method are as follows:
(§3) A ninety six well untreated flat bottom plate was coated with 100 μl/well of 1 μg/ml receptor (αIIβe; αVβ3) in coating buffer and incubated on a shaker at 4° C. overnight. The plate was washed 1× with binding buffer and then blocked with blocking buffer (100 μl/well for two hours at 30° C. After an additional washing with binding buffer, the biotinylated ligand and the competitor were added.
(§4) The ligand fibrinogen was used at a final concentration of 1 μg/ml. The competitor was added at increasing concentrations. Both ligand and competitor were added in volume of 50 μl/well at 2× of the final concentration diluted in binding buffer.
(§5) The plate was covered and incubated for three hours at 30° C. To remove unbound material the plate was washed 3× with binding buffer 100 μl/well.
(§6) Goat anti biotin antibody alkaline phosphatase conjugate (1:2000 dilution) in binding buffer was added (100 μl/well) and the plate was incubated for one hour at 30° C.
(§7) The plate was washed 3× with binding buffer, the substrate solution was added and developed in the dark at room temperature for 1-5 minutes.
(§8) The reaction was stopped by addition of 100 μl/well of 0.4M NaOH and read in the ELISA reader at 405 nm.
(§9) All points were run in triplicates.

αIIbβ3 = αIIbβ3 (Homo sapiens, UniProt P05106+P08514); test: as above; conditions: ligand biotinylated fibrinogen 1 μg/ml; receptor coated at 1 μg/ml; 3 h at 30° C.; triplicates
Procedure: as §1, §2, §3, §4, §5, §6, §7, §8, §9

Compound | IC50 (αvβ3) [µM] | IC50 (αIIbβ3) [µM]
CC(C)C[C@@H]1NC(=O)[C@@H](Cc2ccccc2)NC(=O)[C@H](CC(=O)O)NC(=O)CNC(=O)[C@H](CCCNC(=N)N)NC(=O)CNC1=O [cyclo(--Arg--Gly--Asp--D--Phe--Leu--Gly), cyclo(-Arg-Gly-Asp-D-Phe-Leu-Gly)] (cyclo(GRGD[dF]L)) | 0.54 | 0.06
CC(C)[C@@H]1NC(=O)[C@H](Cc2ccccc2)NC(=O)[C@H](CC(=O)O)NC(=O)[C@@H](C)NC(=O)[C@H](CCCNC(=N)N)NC1=O [cyclo(--Arg--D--Ala--Asp--Phe--Val), cyclo(-Arg-D-Ala-Asp-Phe-Val)] (cyclo(R[dA]DFV)) | 52 | > 100
C[C@@H]1NC(=O)[C@@H]2CCCN2C(=O)[C@H](Cc2ccccc2)NC(=O)[C@H](CC(=O)O)NC(=O)CNC(=O)[C@H](CCCNC(=N)N)NC1=O [cyclo(--Arg--Gly--Asp--Phe--Pro--Ala), cyclo(-Arg-Gly-Asp-Phe-Pro-Ala)] (cyclo(RGDFPA)) | 0.48 | 0.62
N=C(N)NCCC[C@@H]1NC(=O)CNC(=O)[C@H]2CCCN2C(=O)[C@H](Cc2ccccc2)NC(=O)[C@H](CC(=O)O)NC(=O)CNC1=O [cyclo(--Arg--Gly--Asp--Phe--D--Pro--Gly)] (cyclo(RGDF[dP]G)) | 1.06 | 1.5
CC(C)[C@@H]1NC(=O)[C@@H](Cc2ccccc2)NC(=O)[C@H](CC(=O)O)NC(=O)CNC(=O)[C@H](CCCNC(=N)N)NC(=O)[C@H](C)NC1=O [cyclo(--Arg--Gly--Asp--D--Phe--Val--Ala), cyclo(-Arg-Gly-Asp-D-Phe-Val-Ala)] (cyclo(RGD[dF]VA)) | 0.9 | 0.32
N=C(N)NCCC[C@@H]1NC(=O)CNC(=O)[C@@H]2CCCN2C(=O)[C@H](Cc2ccccc2)NC(=O)[C@H](CC(=O)O)NC(=O)CNC1=O [cyclo(--Arg--Gly--Asp--Phe--Pro--Gly), cyclo(-Arg-Gly-Asp-Phe-Pro-Gly)] (cyclo(RGDFPG)) | 0.16 | 1.53
CC(C)[C@@H]1NC(=O)[C@H](Cc2ccccc2)NC(=O)[C@H](CC(=O)O)NC(=O)CNC(=O)[C@@H](CCCNC(=N)N)NC(=O)[C@H](C)NC1=O [cyclo(--D--Arg--Gly--Asp--Phe--Val--Ala), cyclo(-D-Arg-Gly-Asp-Phe-Val-Ala)] (cyclo([dR]GDFVA)) | 4.5 | 22
CC(C)C[C@@H]1NC(=O)[C@H](Cc2ccccc2)NC(=O)[C@H](CC(=O)O)NC(=O)CNC(=O)[C@H](CCCNC(=N)N)NC(=O)[C@@H](C)NC1=O [cyclo(--Arg--Gly--Asp--Phe--Leu--D--Ala), cyclo(-Arg-Gly-Asp-Phe-Leu-D-Ala)] (cyclo(RGDFL[dA])) | 0.31 | 0.76
CC(C)[C@@H]1NC(=O)[C@@H](Cc2ccccc2)NC(=O)[C@H](CC(=O)O)NC(=O)[C@H](C)NC(=O)[C@H](CCCN=C(N)N)NC1=O [cyclo(--Arg--Ala--Asp--D--Phe--Val), cyclo(-Arg-Ala-Asp-D-Phe-Val)] (cyclo(AD[dF]VR)) | 0.77 | > 100
C[C@@H]1NC(=O)[C@H]2CCCN2C(=O)[C@H](Cc2ccccc2)NC(=O)[C@H](CC(=O)O)NC(=O)CNC(=O)[C@H](CCCNC(=N)N)NC1=O [cyclo(--Arg--Gly--Asp--Phe--D--Pro--Ala), cyclo(-Arg-Gly-Asp-Phe-D-Pro-Ala)] (cyclo(RGDF[dP]A)) | 0.37 | 0.74
CC(C)C[C@@H]1NC(=O)[C@@H](Cc2ccccc2)NC(=O)[C@H](CC(=O)O)NC(=O)CNC(=O)[C@H](CCCNC(=N)N)NC(=O)[C@H](C)NC1=O [cyclo(--Arg--Gly--Asp--D--Phe--Leu--Ala), cyclo(-Arg-Gly-Asp-D-Phe-Leu-Ala)] (cyclo(ARGD[dF]L)) | 1.1 | 0.76
CC(C)[C@@H]1NC(=O)[C@H](Cc2ccccc2)NC(=O)[C@H](CC(=O)O)NC(=O)CNC(=O)[C@@H](CCCNC(=N)N)NC(=O)CNC1=O [cyclo(--D--Arg--Gly--Asp--Phe--Val--Gly), cyclo(-D-Arg-Gly-Asp-Phe-Val-Gly)] (cyclo(G[dR]GDFV)) | 1.52 | 20.5
CC(C)[C@@H]1NC(=O)[C@H](Cc2ccccc2)NC(=O)[C@H](CC(=O)O)NC(=O)CNC(=O)[C@H](CCCNC(=N)N)NC(=O)[C@@H](C)NC1=O [cyclo(--Arg--Gly--Asp--Phe--Val--D--Ala), cyclo(-Arg-Gly-Asp-Phe-Val-D-Ala)] (cyclo(RGDFV[dA])) | 0.25 | 1.5
CC(C)[C@@H]1NC(=O)[C@@H](Cc2ccccc2)NC(=O)[C@H](CC(=O)O)NC(=O)CNC(=O)[C@H](CCCNC(=N)N)NC(=O)CNC1=O [cyclo(--Arg--Gly--Asp--D--Phe--Val--Gly), cyclo(-Arg-Gly-Asp-D-Phe-Val-Gly)] (cyclo(RGD[dF]VG)) | 0.62 | 0.13
